Source: ChEMBL document CHEMBL1201862, “PubChem BioAssay data set” (2004)
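Grown in 96-well plates, cells were treated for 48 hours with each compound at five concentrations. Insufficient inhibition: endpoint recorded as highest concentration tested. GI50: concentration for 50% inhibition of growth.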 The source made the active and inactive calls. No stated cut-off is given here; in the data, active = GI50 up to about 1.1 µM and inactive = higher.

Columns and labels:
Assay in all cases: NCI tumour cell line growth inhibition, 48 h
SK-MEL-5 = test system: SK-MEL-5
A549 = test system: A549
786-0 = test system: 786-0
EKVX = test system: EKVX
Malme-3M = test system: Malme-3M
MOLT-4 = test system: MOLT-4
K562 = test system: K562
RPMI-8226 = test system: RPMI-8226
OVCAR-4 = test system: OVCAR-4
UO-31 = test system: UO-31
SR = test system: SR
SW-620 = test system: SW-620
SNB-19 = test system: SNB-19
T47D = test system: T47D
U-251 = test system: U-251
MDA-MB-231 = test system: MDA-MB-231
OVCAR-5 = test system: OVCAR-5
IGROV-1 = test system: IGROV-1
SK-OV-3 = test system: SK-OV-3
HOP-92 = test system: HOP-92

Measured: GI50

Cc1cc(S(=O)(=O)Nc2nc(N)n(-c3ccccc3)n2)c(S)cc1Cl
inactive: SK-MEL-5 > 100 µM | A549 > 100 µM | 786-0 > 100 µM | EKVX > 100 µM | Malme-3M > 100 µM | MOLT-4 > 100 µM | K562 > 100 µM | RPMI-8226 > 100 µM | OVCAR-4 > 100 µM | UO-31 > 100 µM | SR > 100 µM | SW-620 > 100 µM | SNB-19 43.1 µM | T47D > 100 µM | U-251 60 µM | MDA-MB-231 > 100 µM | OVCAR-5 > 100 µM | IGROV-1 > 100 µM | SK-OV-3 > 100 µM

Oc1cc2c(cc1C(c1ccc3c(c1)OCO3)N1CCN(C(c3ccc4c(c3)OCO4)c3cc4c(cc3O)OCO4)CC1)OCO2 (configuration not stated)
inactive: SK-MEL-5 18.6 µM | A549 34 µM | 786-0 13.1 µM | EKVX 35.2 µM | Malme-3M 15.6 µM | MOLT-4 7.08 µM | K562 21.4 µM | HOP-92 23.2 µM | OVCAR-4 4.36 µM | UO-31 12 µM | SR 3.61 µM | SW-620 12.7 µM | SNB-19 20.4 µM | T47D 17.2 µM | U-251 15.4 µM | MDA-MB-231 15.7 µM | OVCAR-5 18.2 µM | IGROV-1 16.9 µM | SK-OV-3 27 µM

O=C1CC(=O)N(C2CCCCC2)C(=O)N1c1ccccc1S(=O)(=O)Oc1ccccc1
inactive: SK-MEL-5 > 100 µM | A549 > 100 µM | 786-0 18.1 µM | EKVX > 100 µM | MOLT-4 19.2 µM | K562 26.9 µM | RPMI-8226 26.5 µM | HOP-92 12.9 µM | OVCAR-4 > 100 µM | UO-31 18.1 µM | SR > 100 µM | SW-620 > 100 µM | SNB-19 > 100 µM | T47D 85.1 µM | U-251 > 100 µM | MDA-MB-231 > 100 µM | OVCAR-5 > 100 µM | IGROV-1 14.9 µM | SK-OV-3 > 100 µM

COc1ccc(-n2c(N)c(C#N)c(C#N)c2-c2ccco2)cc1
inactive: SK-MEL-5 78.5 µM | A549 > 100 µM | 786-0 > 100 µM | EKVX 5.01 µM | Malme-3M > 100 µM | MOLT-4 46.7 µM | K562 59.7 µM | RPMI-8226 > 100 µM | HOP-92 16.8 µM | OVCAR-4 23.3 µM | UO-31 82.8 µM | SR > 100 µM | SW-620 > 100 µM | SNB-19 > 100 µM | T47D 47.9 µM | U-251 > 100 µM | MDA-MB-231 > 100 µM | OVCAR-5 > 100 µM | IGROV-1 75.2 µM | SK-OV-3 > 100 µM

Cc1nc(O)nc(NNCc2ccc(Cl)cc2)c1C(=O)Nc1ccc(Cl)cc1
inactive: SK-MEL-5 > 100 µM | A549 > 100 µM | 786-0 > 100 µM | Malme-3M > 100 µM | MOLT-4 > 100 µM | RPMI-8226 > 100 µM | HOP-92 > 100 µM | OVCAR-4 > 100 µM | UO-31 > 100 µM | SR > 100 µM | SW-620 > 100 µM | SNB-19 > 100 µM | T47D > 100 µM | U-251 > 100 µM | MDA-MB-231 > 100 µM | OVCAR-5 > 100 µM | IGROV-1 > 100 µM | SK-OV-3 > 100 µM

CC1(C)CC(=O)C(Cc2ccccc2)(Cc2ccccc2)C(=O)C1
inactive: SK-MEL-5 > 100 µM | A549 > 100 µM | 786-0 > 100 µM | EKVX > 100 µM | Malme-3M > 100 µM | MOLT-4 > 100 µM | K562 > 100 µM | OVCAR-4 > 100 µM | UO-31 > 100 µM | SR > 100 µM | SW-620 > 100 µM | SNB-19 > 100 µM | T47D > 100 µM | U-251 > 100 µM | MDA-MB-231 > 100 µM | OVCAR-5 > 100 µM | IGROV-1 > 100 µM | SK-OV-3 > 100 µM

Cc1c(C(=O)O)n2c(C)nnc2c2ccccc12
inactive: SK-MEL-5 > 100 µM | A549 > 100 µM | 786-0 > 100 µM | EKVX > 100 µM | MOLT-4 > 100 µM | K562 > 100 µM | HOP-92 > 100 µM | OVCAR-4 > 100 µM | UO-31 61.5 µM | SR > 100 µM | SW-620 > 100 µM | T47D > 100 µM | U-251 > 100 µM | MDA-MB-231 > 100 µM | OVCAR-5 > 100 µM | IGROV-1 > 100 µM | SK-OV-3 > 100 µM

O=c1[nH]c(=O)c2c([nH]1)[nH]c1ccc(Br)cc12
inactive: SK-MEL-5 95.1 µM | A549 > 100 µM | 786-0 66.2 µM | EKVX > 100 µM | Malme-3M > 100 µM | RPMI-8226 79.6 µM | HOP-92 62.5 µM | UO-31 56.9 µM | SR > 100 µM | SW-620 > 100 µM | SNB-19 > 100 µM | T47D > 100 µM | MDA-MB-231 93.5 µM | OVCAR-5 > 100 µM | IGROV-1 77.6 µM | SK-OV-3 13.6 µM

C[C@]12CCC(=O)C=C1CC[C@@H]1C2CC[C@]2(C)Nc3c(ncn3-c3ccc(F)cc3)CC12 (some centres not stated)
inactive: SK-MEL-5 13.5 µM | A549 21.9 µM | 786-0 31 µM | EKVX 27.3 µM | Malme-3M 18.9 µM | MOLT-4 23.3 µM | K562 5.82 µM | HOP-92 33.2 µM | OVCAR-4 28.2 µM | UO-31 27 µM | SR 3.34 µM | SW-620 31.6 µM | SNB-19 49.2 µM | T47D 18.3 µM | U-251 20.9 µM | MDA-MB-231 42.5 µM | OVCAR-5 40.7 µM | IGROV-1 52.4 µM | SK-OV-3 39.3 µM

Clc1cccc(-c2nc3cccc4c3n2Cc2ncccc2-4)c1
inactive: A549 21.9 µM | 786-0 17.6 µM | EKVX > 100 µM | Malme-3M > 100 µM | K562 > 100 µM | HOP-92 44.6 µM | OVCAR-4 36 µM | SR 24 µM | SW-620 > 100 µM | SNB-19 23.9 µM | T47D > 100 µM | U-251 30.3 µM | MDA-MB-231 94.2 µM | OVCAR-5 > 100 µM | IGROV-1 54.3 µM | SK-OV-3 96.8 µM

Cn1c(-c2ccccc2)cc(-c2ccc3c(c2)OCO3)c1-c1ccsc1
inactive: SK-MEL-5 > 100 µM | A549 > 100 µM | 786-0 > 100 µM | EKVX > 100 µM | MOLT-4 > 100 µM | K562 > 100 µM | RPMI-8226 > 100 µM | HOP-92 > 100 µM | OVCAR-4 > 100 µM | UO-31 > 100 µM | SR > 100 µM | SW-620 > 100 µM | SNB-19 > 100 µM | T47D > 100 µM | U-251 > 100 µM | MDA-MB-231 > 100 µM | OVCAR-5 > 100 µM | SK-OV-3 > 100 µM

CC(Br)C(=O)c1ccc2cc(Br)c3ccccc3c2c1 (configuration not stated)
inactive: SK-MEL-5 14 µM | A549 20 µM | 786-0 3.34 µM | EKVX 14.4 µM | Malme-3M 15.1 µM | K562 4.18 µM | RPMI-8226 4.65 µM | HOP-92 16.4 µM | OVCAR-4 16.7 µM | UO-31 17.6 µM | SR 3.15 µM | SW-620 6.01 µM | SNB-19 17.4 µM | T47D 11.9 µM | U-251 13.7 µM | MDA-MB-231 16.3 µM | OVCAR-5 17 µM | IGROV-1 13.1 µM | SK-OV-3 16.8 µM

CN(c1ccccc1Cl)S(=O)(=O)c1ccccc1[N+](=O)[O-]
inactive: SK-MEL-5 15.3 µM | A549 37.2 µM | 786-0 58.9 µM | EKVX 39.2 µM | Malme-3M 79.6 µM | MOLT-4 25.7 µM | K562 21.3 µM | RPMI-8226 24.8 µM | OVCAR-4 > 100 µM | UO-31 31.6 µM | SR 35.5 µM | SW-620 78.9 µM | SNB-19 46.9 µM | T47D 90.6 µM | U-251 40.6 µM | MDA-MB-231 37.2 µM | OVCAR-5 30.6 µM | IGROV-1 70.1 µM | SK-OV-3 51.5 µM

CCOC(=O)c1csc(-c2cn(C)c3c2C(=O)C(OC)=CC3=O)n1
inactive: SK-MEL-5 3.91 µM | A549 17.8 µM | 786-0 > 100 µM | EKVX > 86.3 µM | MOLT-4 > 100 µM | K562 21.6 µM | RPMI-8226 9.53 µM | HOP-92 40.5 µM | OVCAR-4 42.8 µM | UO-31 44.4 µM | SR > 53.5 µM | SW-620 55.2 µM | SNB-19 14.2 µM | T47D > 95.1 µM | U-251 15.4 µM | MDA-MB-231 18.3 µM | OVCAR-5 31.1 µM | IGROV-1 > 46.1 µM | SK-OV-3 69 µM

Cn1c(=O)c2nc[nH]c2n(C)c1=O [THEOPHYLLINE]
inactive: SK-MEL-5 > 100 µM | A549 > 100 µM | 786-0 > 100 µM | EKVX > 100 µM | Malme-3M > 100 µM | MOLT-4 > 100 µM | K562 > 100 µM | RPMI-8226 > 100 µM | HOP-92 > 100 µM | UO-31 > 100 µM | SR > 100 µM | SW-620 > 100 µM | T47D > 100 µM | MDA-MB-231 > 100 µM | OVCAR-5 > 100 µM | IGROV-1 > 100 µM
